Values joined by “and” are separate entries in the source; they are usually repeats but may differ in a detail not shown here. Equal entries are not always repeated.
Assays:
factor Xa = assay: UNIVERSE PK/PD: anti-Factor Xa activity vs plasma rivaroxaban concentration; assay type: in vivo, pediatric patients
Protocol: PT and aPTT were determined using an electromagnetic mechanical clot detection method at ARUP laboratory (Salt Lake City, Utah, USA). The PT assay was performed according to the manufacturers' instructions on the STA Compact Hemostasis Workstation (STA Compact coagulation analyzer) using one PT reagent (STA-Neoplastine CI Plus, Diagnostica Stago, Inc), with an International Sensitivity Index (ISI) of around 1.3. The primary read-out for PT was in seconds, as the International Normalization Ratio (INR) which allows for comparison of PT values regardless of the reagents and instruments used for its determination, is only calibrated and validated for VKA and cannot be used for any other anticoagulant without validation. The PT reportable range is between 10 and 120 seconds. […] The read-out for aPTT is in seconds with a reportable range between 5 and 180 seconds. Anti-Factor Xa activity was determined at Eurofins Biomnis (France). Anti-Factor Xa activity was measured using a one-step reaction based on the inhibitory effect of rivaroxaban against factor Xa's activity of generating thrombin from prothrombin after adding rivaroxaban into the plasma-substrate mixture using the STA-COMPACT MAX2® system (Diagnostica Stago, Asnieres-sur-Seine, France). […] The calibration range of the assay is 35 to 500 ng/mL, and the lower limit of quantification (LLOQ) is 35 ng rivaroxaban/mL. […]

[1] = UNIVERSE primary efficacy outcome: any thrombotic event (CIAC adjudicated); assay type: in vivo, pediatric patients; conditions: full analysis set
Source text: This study was a prospective, open-label, active-controlled, multicenter study designed to evaluate the PK and PK/PD profiles, safety, and efficacy of rivaroxaban for thromboprophylaxis in pediatric patients 2 to 8 years of age with single ventricle physiology who have completed the Fontan procedure within 4 months prior to enrollment. The trial was approved by the institutional review board of each participating institution, as well as the appropriate national ethics committee. Written informed consent for trial participation was obtained from the parent or guardian of each patient. An Independent Data Monitoring Committee (IDMC) ensured patients' safety throughout the trial. A Central Independent Adjudication Committee (CIAC) reviewed all efficacy and safety events.
Part B was the randomized, open-label, active-controlled part of the study that evaluated the safety and efficacy of twice daily administration of rivaroxaban compared to ASA (usual standard of care) for thromboprophylaxis for 12 months. Patients randomized to rivaroxaban also had PK and PD assessments.
Primary efficacy outcome: Any thrombotic event, venous or arterial, symptomatic or asymptomatic defined as: • The appearance of a new thrombus within the cardiovascular system on either routine surveillance or clinically indicated imaging, or • The occurrence of a clinical event known to be strongly associated with thrombus (e.g., stroke, pulmonary embolism).
All efficacy outcomes were adjudicated by the CIAC, blinded to assigned treatment.

[2] = human, in vivo
Source text: The methods and products of the invention concern dosages that are clinically proven safe and/or effective. Adverse events that impact whether the inventive dose, dosing regimen, treatment or method with rivaroxaban of the present invention are safe are adverse bleeding events that include, for example, major bleeding. “Major bleeding” as used herein is defined in accordance with ISTH criteria as clinically overt bleeding associated with a decrease in hemoglobin of […], a transfusion of the equivalent of […] of packed red blood cells or whole blood, or bleeding at a critical site, or with fatal outcome. Other adverse events include clinically relevant non-major bleeding and trivial (minimal) bleeding.
The primary safety outcome was ISTH defined major bleeding. Major bleeding was defined as overt bleeding and: […]
1) Associated with a fall in hemoglobin of 2 g/dL or more; or 2) Leading to a transfusion of the equivalent of 2 or more units of packed red blood cells or whole blood in adults; or 3) Occurring in a critical site: intracranial, intraspinal, intraocular, pericardial, intraarticular, intramuscular with compartment syndrome, retroperitoneal; or 4) Contributing to death.
The secondary safety outcomes were: Clinically relevant non-major bleeding and trivial (minimal) bleeding events.

[3] = UNIVERSE primary efficacy outcome: any thrombotic event (CIAC adjudicated); assay type: in vivo, pediatric patients; conditions: Part A N=12; up to end of treatment; full analysis set
[4] = Part A N=12, up to end of treatment
[5] = Part B rivaroxaban N=64, aspirin N=34, up to end of treatment
[6] = rivaroxaban Part A+B total N=76, up to end of treatment

SMILES: O=C(NC[C@H]1CN(c2ccc(N3CCOCC3=O)cc2)C(=O)O1)c1ccc(Cl)s1 [Rivaroxaban, 5-chloro-N-({(5S)-2-oxo-3-[4-(3-oxo-4-morpholinyl)phenyl]-1,3,oxazolidin-5-yl}methyl)-2-thiophenecarboxamide]
- Correlation (r) of anti-factor Xa with rivaroxaban plasma concentrations (factor Xa; UNIVERSE Part A): 0.932
- R-squared of anti-factor Xa activity vs plasma rivaroxaban concentrations (factor Xa; UNIVERSE study): 0.901
- Ischemic stroke, subjects n (%) [1, 4]: 0
- Other thrombosis, subjects n (%) [1, 4]: 0
- All-cause mortality, No. of subjects with event [1, 5]: 0
- Any thrombotic event (primary efficacy outcome), % of subjects [1, 5]: (1.6%)
- Arterial/intracardiac thrombosis, subjects n (%) [1, 5]: 0
- Ischemic stroke, subjects n (%) [1, 5]: 0
- Other thrombosis, subjects n (%) [1, 5]: 0
- Pulmonary embolism, % of subjects [1, 5]: (1.6%)
- Venous thromboembolism, % of subjects [1, 5]: (1.6%)
- Venous thromboembolism, No. of subjects with event [1, 5]: 1/64
- Venous thrombosis, subjects n (%) [1, 5]: 0
- Any thrombotic event (primary efficacy outcome), % of subjects ([1]; rivaroxaban Part A+B total N=76): 3%
- Arterial/intracardiac thrombosis, subjects n (%) [1, 6]: 0
- Ischemic stroke, subjects n (%) [1, 6]: 0
- Other thrombosis, subjects n (%) [1, 6]: 0
- CRNM bleeding: Hematoma, subjects n (%) [2]: 0
- CRNM bleeding: Subconjunctival, subjects n (%) [2]: 0
- Clinically relevant non-major (CRNM) bleeding, % of subjects [2]: (6.3%)
- Clinically relevant non-major (CRNM) bleeding, No. of subjects with event [2]: 4/64
- Clinically relevant non-major bleeding, subjects n (%) [2]: 5
- Fall in hemoglobin ≥2 g/dL or transfusion of the equivalent ≥2 units of packed red blood cell or whole blood in adults, No. of subjects with event [2]: 1/64
- Fall in hemoglobin ≥2 g/dL or transfusion of the equivalent ≥2 units, % of subjects [2]: (1.6%)
- Fatal or critical site bleeding, No. of subjects with event [2]: 0
- Major and clinically relevant non-major bleeding, % of subjects [2]: (7.8%)
- Major and clinically relevant non-major bleeding, No. of subjects with event [2]: 5/64
- Major bleeding (ISTH), % of subjects [2]: (1.3%)
- Major bleeding (ISTH), subjects n (%) [2]: 1
- Major bleeding (primary safety outcome), % of subjects [2]: (1.6%)
- Major bleeding (primary safety outcome), No. of subjects with event [2]: 1/64
- Trivial (minimal) bleeding, % of subjects [2]: (32.8%)
- Trivial (minimal) bleeding, No. of subjects with event [2]: 21/64
- Trivial bleeding, subjects n (%) [2]: 24
- Trivial bleeding: GI-Lower, subjects n (%) [2]: 0
- Arterial/intracardiac thrombosis, subjects n (%) [3]: 0
- Primary efficacy outcome (any thrombotic event), subjects n (%) [3]: 1 (8.3%) and 1 (8%)
- Pulmonary embolism, subjects n (%) [3]: 0

Reference: patent US20220193085A1, “METHODS OF THROMBOPROPHYLAXIS” (JANSSEN PHARMACEUTICALS, INC., priority 2020, published 2022)
